# Like-named read-outs stand apart in the source and are kept apart here.
# Tests used:
# [1] = Stability in urine under different storage conditions; format: physicochemical, human
# Description: (§4) The stability of plasma and urine samples were evaluated at three different QC concentration levels (LQC, MQC and HQC, n = 3 for each level); the conditions were freeze–thaw stability, long-term stability, short-term stability, and post preparative stability in an autosampler. The evaluation of stability under freeze–thaw condition was carried out over five cycles of − 80 °C for at least 12 h of each cycle. Long-term stability was analyzed after storing the samples at − 80 °C. Short-term stability of each analyte, for up to 8 h during processing on the bench at room temperature, was also evaluated. For evaluation of post-preparative stability, the extracted samples were stored at ambient temperature (4 °C) in an autosampler for 24 h. The analyte was considered as a stable sample when the average percentage of accuracy of the QC sample was in the range of 85–115% and the %CV was not over 15%.
# [2] = plasma
# Description: as §4
# [3] = Cumulative urine excretion after single oral administration of A. paniculata extract; format: in vivo, human
# Description: (§1) An aliquot of 50 µL of plasma or urine was placed in a 1.5 mL of polypropylene centrifuge micro-tube. Protein was removed from the sample by adding 200 µL of methanol (containing 50.00 ng/mL of IS). The mixture was vortexed for 10 min and was then centrifuged at 12,000 rpm, 4 °C for 10 min. The supernatant was filtered through a […] PVDF membrane (Chrom Tech) and transferred into a glass insert in a vial before LC‑MS/MS analysis.
# (§2) The clinical pharmacokinetic study was designed as an open-labeled, with a single oral dosing, and conducted under a fasting condition. Four healthy subjects were recruited according to the following inclusion criteria: 18—55 years old with a body mass index (BMI) of 18–30 kg/m^2. Study participants were identified as healthy based on laboratory testing and physical examinations. The participants received 3 capsules containing A. paniculata extract (calculated as 60 mg of andrographolide/dose) before breakfast with 240 mL of drinking water. Blood samples, in EDTA tubes, were taken after oral administration at 0, 10, 20, 30, 45 min, and 1, 1.5, 2, 4, 6, 8, 10, 12, 24 h post dose. All blood samples were then centrifuged at 4000 ± 100 rpm, 4 °C for 5 min. Plasma was pipetted and stored in cryotubes at − 80 °C until further analysis. Urine samples were collected during 0–4, 4–8, 8–12, 12–24, 24–32, 32–40 and 40–48 h after dosing and were then kept at − 80 °C before sample extraction.
# (§3) Finally, the hydrolysis of glucuronide metabolites in the pharmacokinetic study was performed according to the following process: 50 µL of plasma or urine sample was incubated for 30 min with 50 µL of 1000 U/mL β-glucuronidase in phosphate buffer pH 6.8 (composed of 0.1 M sodium phosphate monobasic and 0.1 M sodium phosphate dibasic) at 37 °C. For the hydrolysis of sulfatase, 50 µL of 100 units/mL of sulfatase in an acetate buffer at pH 5.0 (composed of 0.1 M acetic acid and 0.1 M sodium acetate) was added into 50 µL of sample; the mixture was then incubated at 37 °C for 2 h. The reaction was stopped in all hydrolysis samples with 150 µL of cold methanol, and then protein precipitation was performed prior to LC–MS/MS analysis. However, due to unavailable standard of the conjugated forms (AP-glucuronide and […]). The quantitative analysis of conjugated metabolites was determined after the hydrolysis reaction by enzymatic digestion, and the free form was analyzed without hydrolysis. The conjugated standards of AP-glucuronide or AP-sulfate should be synthesized for determining the exact amount of the glucuronide or sulfate.
# [4] = Clinical pharmacokinetics in plasma after single oral administration of A. paniculata extract; format: in vivo, human; conditions: for Cmax / AUC(0-t) / Vd/F / Tmax / half-life: human, parent compound in plasma, single oral dose of extract (60 mg andrographolide); for Cmax: healthy subjects n = 4; for Cmax / AUC(0-t) / Vd/F: mean ± SD; for AUC(0-t) / Vd/F / Tmax / half-life: n = 4; for Tmax / half-life: median; for AUC of both conjugated metabolites compared to the respective parent compounds: plasma, single oral dose of extract
# Description: as §1, §2
# Pharmacokinetic parameters were determined by non-compartmental analysis using PK solutions software, version 2.0 (Summit Research Services). The maximum concentration of four targeted compounds (Cmax) and the time to reach maximum concentration (Tmax) were taken directly from the individual plasma concentration versus time profiles. The area under the curve from time zero to the last sampling time (AUC0-t) was estimated using the linear trapezoidal rule. The apparent volume of distribution (Vd/F) and the elimination half-life (t1/2) were determined using non-compartmental analysis.
# as §3
# [5] = Freeze–thaw stability 5 cycles, 2.50 ng/mL (LQC)
# [6] = Freeze–thaw stability 5 cycles, 500.00 ng/mL (MQC)
# [7] = Freeze–thaw stability 5 cycles, 900.00 ng/mL (HQC)
# [8] = Long term stability 3 months at − 80 °C, 2.50 ng/mL (LQC)
# [9] = Long term stability 3 months at − 80 °C, 500.00 ng/mL (MQC)
# [10] = Long term stability 3 months at − 80 °C, 900.00 ng/mL (HQC)
# [11] = Post preparative stability 24 h at autosampler, 2.50 ng/mL (LQC)
# [12] = Post preparative stability 24 h at autosampler, 500.00 ng/mL (MQC)
# [13] = Post preparative stability 24 h at autosampler, 900.00 ng/mL (HQC)
# [14] = Short term stability 8 h at room temperature, 2.50 ng/mL (LQC)
# [15] = Short term stability 8 h at room temperature, 500.00 ng/mL (MQC)
# [16] = Short term stability 8 h at room temperature, 900.00 ng/mL (HQC)
compound,measurement,setting,value
"C=C1CC[C@@H]2[C@](C)(CO)[C@H](O)CC[C@@]2(C)[C@@H]1C/C=C1/C(=O)OC[C@H]1O [AP1, andrographolide]",%Accuracy,[1]; [5],94.39%
same,Measured concentration,[1]; [5],2.36 ± 0.20 ng/mL
same,%Accuracy,[1]; [6],94.01%
same,Measured concentration,[1]; [6],470.05 ± 32.15 ng/mL
same,%Accuracy,[1]; [7],98.78%
same,Measured concentration,[1]; [7],889.00 ± 36.63 ng/mL
same,%Accuracy,[1]; [8],95.31%
same,Measured concentration,[1]; [8],2.38 ± 0.16 ng/mL
same,%Accuracy,[1]; [9],91.78%
same,Measured concentration,[1]; [9],458.89 ± 20.53 ng/mL
same,%Accuracy,[1]; [10],98.08%
same,Measured concentration,[1]; [10],882.74 ± 14.22 ng/mL
same,%Accuracy,[1]; [11],94.23%
same,Measured concentration,[1]; [11],2.36 ± 0.18 ng/mL
same,%Accuracy,[1]; [12],95.00%
same,Measured concentration,[1]; [12],474.97 ± 23.30 ng/mL
same,%Accuracy,[1]; [13],99.66%
same,Measured concentration,[1]; [13],896.96 ± 17.62 ng/mL
same,%Accuracy,[1]; [14],93.15%
same,Measured concentration,[1]; [14],2.33 ± 0.06 ng/mL
same,%Accuracy,[1]; [15],95.80%
same,Measured concentration,[1]; [15],479.00 ± 32.64 ng/mL
same,%Accuracy,[1]; [16],101.88%
same,Measured concentration,[1]; [16],916.95 ± 32.00 ng/mL
same,%Accuracy,[2]; [5],97.99%
same,Measured concentration,[2]; [5],2.45 ± 0.06 ng/mL
same,%Accuracy,[2]; [6],93.01%
same,Measured concentration,[2]; [6],465.07 ± 25.39 ng/mL
same,%Accuracy,[2]; [7],95.28%
same,Measured concentration,[2]; [7],857.48 ± 19.46 ng/mL
same,%Accuracy,[2]; [8],94.28%
same,Measured concentration,[2]; [8],2.36 ± 0.06 ng/mL
same,%Accuracy,[2]; [9],91.77%
same,Measured concentration,[2]; [9],458.87 ± 8.67 ng/mL
same,%Accuracy,[2]; [10],99.25%
same,Measured concentration,[2]; [10],893.21 ± 22.77 ng/mL
same,%Accuracy,[2]; [11],93.81%
same,Measured concentration,[2]; [11],2.35 ± 0.18 ng/mL
same,%Accuracy,[2]; [12],92.60%
same,Measured concentration,[2]; [12],463.01 ± 10.97 ng/mL
same,%Accuracy,[2]; [13],99.52%
same,Measured concentration,[2]; [13],895.66 ± 31.23 ng/mL
same,%Accuracy,[2]; [14],93.65%
same,Measured concentration,[2]; [14],2.34 ± 0.15 ng/mL
same,%Accuracy,[2]; [15],89.06%
same,Measured concentration,[2]; [15],445.29 ± 9.56 ng/mL
same,%Accuracy,[2]; [16],98.76%
same,Measured concentration,[2]; [16],888.87 ± 23.16 ng/mL
same,Route of excretion,[3],primarily excreted renally
same,Cmax,[4],60.9 ± 26.5 ng/mL
same,AUC(0-t),[4],210 ± 21.1 ng·h/mL
same,Vd/F,[4],4.58 ± 3.28 L/kg
same,Tmax,[4],0.8 h
same,half-life,[4],1.27 h
same,AUC of both conjugated metabolites compared to the respective parent compounds,[4],greater
"C=C1CC[C@@H]2[C@](C)(CO)[C@H](O)CC[C@@]2(C)[C@@H]1CCC1=CCOC1=O [AP6, 14-deoxyandrographolide]",%Accuracy,[1]; [5],95.48%
same,Measured concentration,[1]; [5],2.39 ± 0.18 ng/mL
same,%Accuracy,[1]; [6],94.03%
same,Measured concentration,[1]; [6],470.16 ± 19.65 ng/mL
same,%Accuracy,[1]; [7],102.77%
same,Measured concentration,[1]; [7],924.91 ± 7.49 ng/mL
same,%Accuracy,[1]; [8],93.89%
same,Measured concentration,[1]; [8],2.35 ± 0.07 ng/mL
same,%Accuracy,[1]; [9],90.88%
same,Measured concentration,[1]; [9],454.38 ± 21.26 ng/mL
same,%Accuracy,[1]; [10],99.27%
same,Measured concentration,[1]; [10],893.39 ± 24.76 ng/mL
same,%Accuracy,[1]; [11],96.20%
same,Measured concentration,[1]; [11],2.41 ± 0.13 ng/mL
same,%Accuracy,[1]; [12],93.94%
same,Measured concentration,[1]; [12],469.68 ± 35.58 ng/mL
same,%Accuracy,[1]; [13],101.31%
same,Measured concentration,[1]; [13],911.80 ± 10.76 ng/mL
same,%Accuracy,[1]; [14],95.56%
same,Measured concentration,[1]; [14],2.39 ± 0.15 ng/mL
same,%Accuracy,[1]; [15],91.90%
same,Measured concentration,[1]; [15],459.52 ± 16.67 ng/mL
same,%Accuracy,[1]; [16],102.42%
same,Measured concentration,[1]; [16],921.74 ± 21.18 ng/mL
same,%Accuracy,[2]; [5],96.87%
same,Measured concentration,[2]; [5],2.42 ± 0.04 ng/mL
same,%Accuracy,[2]; [6],94.79%
same,Measured concentration,[2]; [6],473.93 ± 25.58 ng/mL
same,%Accuracy,[2]; [7],98.93%
same,Measured concentration,[2]; [7],890.41 ± 25.49 ng/mL
same,%Accuracy,[2]; [8],88.89%
same,Measured concentration,[2]; [8],2.22 ± 0.09 ng/mL
same,%Accuracy,[2]; [9],92.43%
same,Measured concentration,[2]; [9],462.16 ± 14.34 ng/mL
same,%Accuracy,[2]; [10],98.92%
same,Measured concentration,[2]; [10],890.25 ± 20.07 ng/mL
same,%Accuracy,[2]; [11],100.85%
same,Measured concentration,[2]; [11],2.52 ± 0.08 ng/mL
same,%Accuracy,[2]; [12],96.39%
same,Measured concentration,[2]; [12],481.96 ± 2.97 ng/mL
same,%Accuracy,[2]; [13],101.27%
same,Measured concentration,[2]; [13],911.38 ± 18.09 ng/mL
same,%Accuracy,[2]; [14],101.65%
same,Measured concentration,[2]; [14],2.54 ± 0.21 ng/mL
same,%Accuracy,[2]; [15],90.47%
same,Measured concentration,[2]; [15],452.37 ± 10.16 ng/mL
same,%Accuracy,[2]; [16],100.71%
same,Measured concentration,[2]; [16],906.41 ± 47.83 ng/mL
same,Route of excretion,[3],primarily excreted renally
same,Cmax,[4],6.33 ± 1.18 ng/mL
same,AUC(0-t),[4],10.2 ± 2.9 ng·h/mL
same,Vd/F,[4],1.93 ± 1.03 L/kg
same,Tmax,[4],1.5 h
same,half-life,[4],0.23 h
same,AUC of both conjugated metabolites compared to the respective parent compounds,[4],greater

# Source: PMC9924185, “A validated LC–MS/MS method for clinical pharmacokinetics and presumptive phase II metabolic pathways following oral administration of Andrographis paniculata extract” (Scientific Reports, 2023)
